This assay relates to H460 cells. Briefly: Cytotoxicity: anti-proliferation activity on H460 cells, multi-well Alamar Blue based assay. In kind it is cell-based. Here is the method:
Cell growth in the presence and absence of the test compound was compared following a multi-well Alamar Blue based assay, and measured by a fluorescence plate reader at 550 nm excitation and 590 nm emission (see Biosource International Inc., Tech Application Notes, Use of Alamar Blue in the measurement of Cell Viability and Toxicity, Determining IC50). H460 cells (ATCC HTB-177 (NCl—H40), 4,000 cells/well/200 μl) were seeded in a 96 well plate in RPMI medium (Invitrogen Corporation, Carlsbad, Calif.). After 24 hours, these plates were divided into 3 groups—Control group, 2 h treatment group and 3 day treatment group. A test compound was added in a range of concentration to each plate in the treatment groups (2 h and 3 day). In the 2 h treatment group, after 2 h, the H460 cells were rinsed to remove the test compound, incubated for 3 days, and stained with AlamarBlue. The cells in the 3-day treatment group were incubated along with the test compound for 3 days, followed by staining with AlamarBlue. In the Control group, AlamarBlue was added to the plate at (i) day 0 and (ii) day 3 and the fluorescence emission measured to establish the control reading. In all the groups, the capacity of the cells to proliferate was measured 6 hours after addition of AlamarBlue by a fluorescence plate reader at 550 nm excitation and 590 nm emission.
A general note: The colour change of resazurin is a common sign of viable cells or microbes.

Setting [1] is: Homo sapiens, NCI-H460, read-out: GI50 (concentration required to inhibit cellular proliferation by 50%).
The mark [2] stands for this setting: Homo sapiens, NCI-H460, 2 h, read-out: GI90.
The mark [3] stands for this setting: Homo sapiens, NCI-H460, 72 h, read-out: GI50 (concentration required to inhibit cellular proliferation by 50%).
The mark [4] stands for this setting: Homo sapiens, NCI-H460, 72 h, read-out: GI90.
[5] abbreviates: read-out: GI90 (the source's name).
Where [6] appears, read: read-out: GI50 (concentration required to inhibit cellular proliferation by 50%).
Setting [7] is: Homo sapiens, NCI-H460, 72 h, H460 cells, 3 day incubation with compound, AlamarBlue, read-out: GI50 (concentration required to inhibit cellular proliferation by 50%).
Where [8] appears, read: Homo sapiens, NCI-H460, 72 h, H460 cells, 3 day incubation with compound, AlamarBlue, read-out: GI90 (the source's name).
The mark [9] stands for this setting: Homo sapiens, NCI-H460, H460 cells, 2 h treatment, rinsed, then incubated for 3 days, AlamarBlue, read-out: GI50 (concentration required to inhibit cellular proliferation by 50%).
The mark [10] stands for this setting: Homo sapiens, NCI-H460, H460 cells, 2 h treatment, rinsed, then incubated for 3 days, AlamarBlue, read-out: GI90 (the source's name).

Values joined by “and” are separate entries in the source; they are usually repeats but may differ in a detail not shown here. Equal values may be shown once. Read-outs that look alike come from different tables or passages of the source.

In the case of `COc1cccc2c1C(=O)c1c(O)c3c(c(O)c1C2=O)C[C@@](O)(C(C)=O)C[C@@H]3O[C@H]1CC(NC(C#N)COCCOS(=O)(=O)c2ccc(C)cc2)C(O)[C@H](C)O1` (some centres unmarked) [Compound 52], the GI50 under setting [1] is 0.3 nM.

Take `COc1cccc2c1C(=O)c1c(O)c3c(c(O)c1C2=O)C[C@@](O)(C(C)=O)C[C@@H]3O[C@H]1CC(N2CCN(C(=O)CC(C)(C)C)CC2)C(O)[C@H](C)O1` (some centres unmarked) [Compound 48]: the IC90 runs as follows: under setting [2], 398 nM; under setting [4], 200 nM. The GI50 is, setting by setting: under setting [3], 63.1 nM; under setting [1], 141 nM.

`COc1cccc2c1C(=O)c1c(O)c3c(c(O)c1C2=O)CC(O)(C(C)=O)CC3OC1CC(N2CCN(C(C)=O)CC2)C(O)C(C)O1` (centres unmarked) [Compound 46]: the IC90 under setting [5] was 158.50 nM and 100.00 nM.

As for `COc1cccc2c1C(=O)c1c(O)c3c(c(O)c1C2=O)C[C@@](O)(C(C)=O)C[C@@H]3O[C@H]1CC2C(OC3CN(C(=O)OCc4cnc([N+](=O)[O-])n4C)CCN32)[C@H](C)O1` (some centres unmarked) [Compound 28], the IC90 by setting is: under setting [2], 0.1 nM; under setting [4], 1.26 nM. Moreover, the GI50 is, setting by setting: under setting [3], 0.4 nM; under setting [1], 0.03 nM.

For `COc1cccc2c1C(=O)c1c(O)c3c(c(O)c1C2=O)C[C@@](O)(C(C)=O)C[C@@H]3O[C@H]1CC(N2CCN(C(=O)OCC(C)C)CC2)C(O)[C@H](C)O1` (some centres unmarked) [Compound 47], the IC90 was 398 nM under setting [2] and 100 nM under setting [4]. Besides, the GI50 is, setting by setting: under setting [3], 20 nM; under setting [1], 126 nM.

As to `COc1cccc2c1C(=O)c1c(O)c3c(c(O)c1C2=O)C[C@@](O)(C(C)=O)C[C@@H]3O[C@H]1CC(N2CCOCC2C#N)C(OC(=O)OCC(C)C)[C@H](C)O1` (some centres unmarked) [Compound 57], the IC90 is 316 nM under setting [2] and 10 nM under setting [4]. Besides, the GI50 reads like this: under setting [3], 1.58 nM; under setting [1], 125 nM.

As for `COc1cccc2c1C(=O)c1c(O)c3c(c(O)c1C2=O)C[C@@](O)(C(C)=O)C[C@@H]3O[C@H]1CC(NC(C#N)COCCCl)C(O)[C@H](C)O1` (some centres unmarked) [Compound 53], the GI50 by setting is: under setting [3], 2.5 nM; under setting [1], 15.8 nM.

`COc1cccc2c1C(=O)c1c(O)c3c(c(O)c1C2=O)C[C@@](O)(C(O)CO)C[C@@H]3O[C@H]1CC(N2CCN(C(=O)OC(C)(C)C)CC2C#N)[C@H](O)[C@H](C)O1` (some centres unmarked) [Compound 13]: the IC90 is, setting by setting: under setting [2], 50.1 nM; under setting [4], 20 nM. The GI50 runs as follows: under setting [3], 4 nM; under setting [1], 10 nM.

As for `COCCOC(=O)N1CCN(C2C[C@H](O[C@H]3C[C@](O)(C(C)=O)Cc4c(O)c5c(c(O)c43)C(=O)c3c(OC)cccc3C5=O)O[C@H](C)C2O)C(C#N)C1` (some centres unmarked) [Compound 14], the IC90 reads like this: under setting [2], 0.4 nM; under setting [4], 0.63 nM. Also, the GI50 runs as follows: under setting [3], 0.2 nM; under setting [1], 0.2 nM.

`COc1cccc2c1C(=O)c1c(O)c3c(c(O)c1C2=O)C[C@@](O)(C(C)=O)C[C@@H]3O[C@H]1CC(N2CCN(C(=O)OCc3cnc([N+](=O)[O-])n3C)CC2C#N)C(O)[C@H](C)O1` (some centres unmarked) [Compound 3]: the GI50 under setting [6] was 2.5 nM and 1.3 nM. In addition, under setting [5], the IC90 is 7.90 nM and 4.00 nM.

Take `COCCOC(=O)N1CCN2C(C1)OC1C2C[C@H](O[C@H]2C[C@](O)(C(=O)CO)Cc3c(O)c4c(c(O)c32)C(=O)c2c(OC)cccc2C4=O)O[C@@H]1C` (some centres unmarked) [Compound 50]: the GI50 turned out to be 0.16 nM under setting [7] and 0.13 nM under setting [9]. The IC90 reads like this: under setting [8], 0.32 nM; under setting [10], 0.4 nM.

Consider `COc1cccc2c1C(=O)c1c(O)c3c(c(O)c1C2=O)C[C@@](O)(C(O)CO)C[C@@H]3O[C@H]1CC(N2CCN(C(=O)OC(C)(C)C)CC2)[C@H](O)[C@H](C)O1` (some centres unmarked) [Compound 49], for which the IC90 under setting [2] is 158 nM and the IC90 under setting [4] was determined as 100 nM. Also, the GI50 reads like this: under setting [3], 20 nM; under setting [1], 63.1 nM.

As to `COc1cccc2c1C(=O)c1c(O)c3c(c(O)c1C2=O)C[C@@](O)(C(C)=O)C[C@@H]3O[C@H]1CC(N2CCN(C(=O)OCc3cnc([N+](=O)[O-])n3C)CC2)C(O)[C@H](C)O1` (some centres unmarked) [Compound 33], under setting [6], the GI50 was 20 nM and 10 nM. Under setting [5], the IC90 is 79 nM and 50 nM.

For `COc1cccc2c1C(=O)c1c(O)c3c(c(O)c1C2=O)C[C@@](O)(C(C)=O)C[C@@H]3O[C@H]1CC(NC(COCCOS(=O)(=O)c2ccc(C)cc2)OC)C(O)[C@H](C)O1` (some centres unmarked) [Compound 51], the GI50 under setting [1] came to 2.5 nM.

As for `COc1cccc2c1C(=O)c1c(O)c3c(c(O)c1C2=O)C[C@@](O)(C(C)=O)C[C@@H]3O[C@@H]1CC(N2CCN(C(=O)OCc3ccc([N+](=O)[O-])o3)CC2C#N)C(O)[C@H](C)O1` (some centres unmarked) [Compound 5], the GI50 runs as follows: under setting [7], 1 nM; under setting [9], 3.2 nM. The IC90 is, setting by setting: under setting [8], 4 nM; under setting [10], 10 nM.

Turning to `COc1cccc2c1C(=O)c1c(O)c3c(c(O)c1C2=O)CC(O)(C(C)=O)CC3OC1CC(N2CCN(C(=O)OCC3c4ccccc4-c4ccccc43)CC2)C(O)C(C)O1` (centres unmarked) [Compound 44], the IC90 under setting [5] was determined as 501 nM.

Take `COc1cccc2c1C(=O)c1c(O)c3c(c(O)c1C2=O)C[C@@](O)(C(C)=O)C[C@@H]3O[C@H]1CC(N2CCOCC2O)C(O)[C@H](C)O1` (some centres unmarked) [Compound 59]: the IC90 under setting [2] was determined as 1000 nM and the IC90 under setting [4] is 200 nM. Moreover, the GI50 reads like this: under setting [3], 50 nM; under setting [1], 200 nM.

`COc1cccc2c1C(=O)c1c(O)c3c(c(O)c1C2=O)C[C@]1(O)C[C@@H]3O[C@H]2CC([C@H](O)[C@H](C)O2)N2CCOCC2OCC1=O` (some centres unmarked) [Compound 58]: the GI50 runs as follows: under setting [7], 0.14 nM; under setting [9], 0.3 nM. The IC90 worked out at 0.6 nM under setting [8] and 1 nM under setting [10].

For the compound `COc1cccc2c1C(=O)c1c(O)c3c(c(O)c1C2=O)C[C@@](O)(C(C)=O)C[C@@H]3O[C@H]1CC(N2CCN(C(=O)C(F)(F)F)CC2)C(O)[C@H](C)O1` (some centres unmarked) [Compound 45], the IC90 under setting [5] is 1000 nM and 630 nM.

`COc1cccc2c1C(=O)c1c(O)c3c(c(O)c1C2=O)C[C@@](O)(C(=O)COC(=O)OCc1cnc([N+](=O)[O-])n1C)C[C@@H]3O[C@H]1CC(N2CCOCC2C#N)[C@H](O)[C@H](C)O1` (some centres unmarked) [Compound 60]: the IC90 came to 2.5 nM under setting [2] and 0.2 nM under setting [4]. Also, the GI50 is 0.1 nM under setting [3] and 0.79 nM under setting [1].

Values taken from patent US20070060534A1, “Anthracycline analogs” (Threshold Pharmaceuticals, Inc., priority 2005, published 2007).
